Literature values in US20080200520A1, “Iron Modulators” (BTG INTERNATIONAL LIMITED, priority 2005, published 2008).
Structures can show the parent of a compound that is named as a salt.

Columns and labels:
[1] = comparative compounds, commercial lots
[2] = comparative compounds, commercial lots; remark: listed apart in the source
[3] = comparative compounds, commercial lots; solvent in which soluble
mice = conditions: oral treatment

Stability [2] | Solubility [3] | SMILES | Potential Hazards [1] | protection from the effects of MPTP (mice)
stable | water | CC(=O)N(O)CCCCCNC(=O)CCC(=O)N(O)CCCCCNC(=O)CCC(=O)N(O)CCCCCN [Desferrioxamine Mesylate] | none | –
stable | water | Cc1c(O)c(=O)ccn1C [Deferiprone] | – | –
stable | DMSO | Oc1c(I)cc(Cl)c2cccnc12 [Clioquinol] | harmful. Sensitisation by inhalation and skin contact. Causes severe irritation. Readily absorbed through skin. Target organs: eyes and nerves | protect mice from the effects of MPTP
